{"source": "patent US20050282743A1", "about": "“Molecular interactions in cells” (Arbor Vita Corporation, priority 2001, published 2005)", "assay_in_all_cases": "G' assay (10 uM PL peptide), results of TABLE 7 and TABLE 12", "type_in_all_cases": "binding", "key": {"[1]": {"target": "T1, PDZ protein (GST-PDZ fusion) (Homo sapiens, UniProt P50479)", "T1 construct": "made in house; host or cells: E. coli (DH5alpha, BL21 or JM109)", "T1 sequence (P50479 1-330)": "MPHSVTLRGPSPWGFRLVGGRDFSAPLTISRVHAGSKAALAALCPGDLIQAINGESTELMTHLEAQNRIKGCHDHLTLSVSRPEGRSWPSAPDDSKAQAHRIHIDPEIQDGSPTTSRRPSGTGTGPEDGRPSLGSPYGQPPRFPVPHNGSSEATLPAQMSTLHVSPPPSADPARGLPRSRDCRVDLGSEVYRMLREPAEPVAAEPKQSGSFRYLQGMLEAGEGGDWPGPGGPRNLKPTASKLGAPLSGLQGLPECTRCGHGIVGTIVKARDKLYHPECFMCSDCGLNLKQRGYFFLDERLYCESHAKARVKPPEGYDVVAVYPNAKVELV", "settings": "PDZ LIM RIL, PDZ Domain 1", "outline": "(§1)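 Binding classes derive from A450 nm of bound biotin-tagged PL peptide. A score of 5 needs A450 above 4 in more than two repeats.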"}, "[2]": {"target": "T2, PDZ protein (GST-PDZ fusion) (Homo sapiens, UniProt O14908)", "T2 construct": "made in house; host or cells: E. coli (DH5alpha, BL21 or JM109)", "T2 sequence (O14908 1-333)": "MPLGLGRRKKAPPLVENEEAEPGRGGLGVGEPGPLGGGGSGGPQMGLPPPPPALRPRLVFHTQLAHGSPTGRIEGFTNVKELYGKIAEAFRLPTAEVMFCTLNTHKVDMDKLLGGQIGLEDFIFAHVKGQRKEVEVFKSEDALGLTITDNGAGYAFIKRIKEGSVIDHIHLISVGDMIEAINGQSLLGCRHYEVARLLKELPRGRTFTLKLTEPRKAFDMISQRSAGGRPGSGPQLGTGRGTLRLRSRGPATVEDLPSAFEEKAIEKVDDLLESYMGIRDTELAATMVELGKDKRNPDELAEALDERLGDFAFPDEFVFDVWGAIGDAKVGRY", "settings": "PDZ TAX IP2, PDZ Domain 1", "outline": "as §1"}, "[3]": {"target": "T3, PDZ protein (GST-PDZ fusion) (Homo sapiens, UniProt Q9UDY2)", "T3 construct": "made in house; host or cells: E. coli (DH5alpha, BL21 or JM109)", "T3 sequence (Q9UDY2 1-1190)": "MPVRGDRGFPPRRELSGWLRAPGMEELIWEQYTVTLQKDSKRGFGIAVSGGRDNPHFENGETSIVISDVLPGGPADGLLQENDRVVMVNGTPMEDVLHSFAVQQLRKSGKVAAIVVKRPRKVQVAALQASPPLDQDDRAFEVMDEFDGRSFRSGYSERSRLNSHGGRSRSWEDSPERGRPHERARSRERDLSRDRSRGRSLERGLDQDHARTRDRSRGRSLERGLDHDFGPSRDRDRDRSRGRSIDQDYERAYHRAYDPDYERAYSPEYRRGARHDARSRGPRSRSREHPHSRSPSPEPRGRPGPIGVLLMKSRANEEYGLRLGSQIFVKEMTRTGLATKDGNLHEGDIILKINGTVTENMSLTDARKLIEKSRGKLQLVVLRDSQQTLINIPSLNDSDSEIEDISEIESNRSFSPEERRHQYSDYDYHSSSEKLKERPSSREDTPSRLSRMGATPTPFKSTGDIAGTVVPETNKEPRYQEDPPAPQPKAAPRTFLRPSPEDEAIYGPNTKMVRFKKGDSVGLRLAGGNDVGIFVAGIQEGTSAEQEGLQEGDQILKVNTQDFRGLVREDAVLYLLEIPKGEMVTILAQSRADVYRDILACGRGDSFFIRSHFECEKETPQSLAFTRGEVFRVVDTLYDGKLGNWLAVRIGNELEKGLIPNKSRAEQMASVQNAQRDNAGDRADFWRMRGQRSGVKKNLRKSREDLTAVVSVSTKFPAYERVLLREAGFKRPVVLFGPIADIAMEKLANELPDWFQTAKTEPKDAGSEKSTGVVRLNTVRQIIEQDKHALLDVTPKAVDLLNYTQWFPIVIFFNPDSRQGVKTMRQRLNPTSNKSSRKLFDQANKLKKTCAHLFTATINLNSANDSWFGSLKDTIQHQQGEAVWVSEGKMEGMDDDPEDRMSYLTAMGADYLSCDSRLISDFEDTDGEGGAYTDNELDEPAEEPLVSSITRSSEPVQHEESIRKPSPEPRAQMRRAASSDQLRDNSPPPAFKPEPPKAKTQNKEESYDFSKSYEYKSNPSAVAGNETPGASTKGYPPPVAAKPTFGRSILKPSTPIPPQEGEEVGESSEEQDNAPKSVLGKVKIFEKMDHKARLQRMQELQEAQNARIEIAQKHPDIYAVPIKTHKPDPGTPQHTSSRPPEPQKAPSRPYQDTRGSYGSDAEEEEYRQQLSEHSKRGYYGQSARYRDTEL", "settings": "PDZ ZO-2, PDZ Domain 1", "outline": "as §1"}}, "note": "Peptide text beside a SMILES is read from it. * marks the point of attachment. Biotin = O=C1N[C@H]2[C@H](CS[C@H]2CCCCC(=O)*)N1"}
{"compound": "CSCC[C@H](NC(=O)[C@H](C)NC(=O)[C@H](CCCNC(=N)N)NC(=O)CNC(=O)[C@@H](NC(=O)[C@H](Cc1c[nH]c2ccccc12)NC(=O)[C@H](CCCNC(=N)N)NC(=O)CNC(=O)CCCC[C@@H]1SC[C@@H]2NC(=O)N[C@@H]21)[C@@H](C)O)C(=O)N[C@@H](CO)C(=O)N[C@@H](C)C(=O)N[C@@H](Cc1c[nH]c2ccccc12)C(=O)N[C@@H](CCCCN)C(=O)N1CCC[C@H]1C(=O)N[C@H](C(=O)N[C@@H](CCCNC(=N)N)C(=O)N[C@@H](CCCNC(=N)N)C(=O)N[C@@H](CCC(=O)O)C(=O)N[C@H](C(=O)N[C@@H](CCC(=O)O)C(=O)N[C@H](C(=O)O)C(C)C)[C@@H](C)O)[C@@H](C)O", "note": "[HPV E6 #35 (modified)] (Biotin-GRWTGRAMSAWKPTRRETEV-OH; C-terminus assumed)", "values": [{"measurement": "Classification", "setting": "[1]", "value": "4 (A450 nm 3-4)"}, {"measurement": "Classification", "setting": "[2]", "value": "4 (A450 nm 3-4)"}, {"measurement": "Classification", "setting": "[3]", "value": "2 (A450 nm 1-2)"}]}
